Assay results: patent US12077495B2 (priority 2018, dated 2024)
Read-outs that look alike come from different tables or passages of the source.

Columns and labels:
[1] = target: T1, specific GHB sites (high-affinity GHB binding site) (Rattus norvegicus, UniProt P11275); assay: biochemical
T1 construct: using crude synaptic membranes prepared from rat cortex; from tissue; host or cells: rat cortex, crude synaptic membranes

[2] = target: T2, CAMK2A (Rattus norvegicus, UniProt P11275); assay: biochemical; format: binding; settings: whole cell lysates of CAMK2A-transfected HEK293T cells
T2 construct: host or cells: HEK293T
T2 sequence (P11275 whole entry): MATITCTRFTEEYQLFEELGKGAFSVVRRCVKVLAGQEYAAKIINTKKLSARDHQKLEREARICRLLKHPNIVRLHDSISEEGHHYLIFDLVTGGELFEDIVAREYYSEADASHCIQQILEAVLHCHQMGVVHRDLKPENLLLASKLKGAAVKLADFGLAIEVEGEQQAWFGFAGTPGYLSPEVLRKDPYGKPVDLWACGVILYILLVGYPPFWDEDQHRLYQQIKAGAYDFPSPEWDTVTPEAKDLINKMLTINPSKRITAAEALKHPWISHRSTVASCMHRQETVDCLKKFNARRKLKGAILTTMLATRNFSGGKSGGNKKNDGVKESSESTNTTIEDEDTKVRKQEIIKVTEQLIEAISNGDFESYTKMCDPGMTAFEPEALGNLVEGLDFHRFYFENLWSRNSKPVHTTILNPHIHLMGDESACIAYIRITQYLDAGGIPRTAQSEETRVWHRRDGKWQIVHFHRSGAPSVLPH
Procedure: Cells were transfected with rat CAMK2A (Origene construct RR201121) or rat CAMK2B (Origene construct RR200520) using PolyFect (Qiagen, West Sussex, UK) according to the manufacturer's protocol. Whole cell homogenates were prepared 48 hr post-transfection by washing the cells with ice-cold 1×PBS and harvesting by scraping. Cells were collected and centrifuged for 10 min at 1000×g. Cell pellets were resuspended in ice-cold 1×PBS and homogenized using 2×1 mm zirkonium beads in a bullet blender for 20 s at max speed (NextAdvance, NY, USA). Homogenates were cleared by centrifugation (10 min, 4° C., 14.000×g). Protein concentration was determined using the Bradford protein assay. 150-200 μg protein was incubated with 5 nM ^3H-A and test compound in 1 ml total volume for 1 hr at 0-4° C. […] Proteins were then precipitated by addition of ice-cold acetone (4× of the assay volume), vortexing and incubation at −20° C. for 1 hr. Proteins were filtrated rapidly through GF/C unifilters (Whatman) and washed. The dried filters were added scintillation liquid and radioactivity measured on a Tricarb 2100 Scintillation counter (Packard).
A) Principle of photoaffinity labelling workflow. […] After introduction of biotin through a Staudinger-Bertozzi ligation to EZ-Link™ Phosphine-PEG3-Biotin (ThermoFisher Scientific), the biotin-labelled proteins were affinity-purified and subjected to LC-MS/MS analysis. […] C)^3H-A binding to cortical membranes from CAMK2A and CAMK2B knock-out mouse brains.
Human/rat CAMK2A expressed in HEK cells was assayed in an in-house established ^3H-A filtration binding assay performed on whole cell lysates of CAMK2A-transfected HEK293T cells.

[3] = target: T1, specific GHB sites (high-affinity GHB binding site); assay: biochemical; settings: pH 6
[4] = target: T3, GABAB receptor (Rattus norvegicus, UniProt Q9Z0U4); assay: 3H-GABA binding assay for GABAB, rat cortex membranes
T3 construct: using crude synaptic membranes prepared from rat cortex; from tissue; host or cells: rat cortex, crude synaptic membranes
T3 sequence (Q9Z0U4 17-960 limits assumed): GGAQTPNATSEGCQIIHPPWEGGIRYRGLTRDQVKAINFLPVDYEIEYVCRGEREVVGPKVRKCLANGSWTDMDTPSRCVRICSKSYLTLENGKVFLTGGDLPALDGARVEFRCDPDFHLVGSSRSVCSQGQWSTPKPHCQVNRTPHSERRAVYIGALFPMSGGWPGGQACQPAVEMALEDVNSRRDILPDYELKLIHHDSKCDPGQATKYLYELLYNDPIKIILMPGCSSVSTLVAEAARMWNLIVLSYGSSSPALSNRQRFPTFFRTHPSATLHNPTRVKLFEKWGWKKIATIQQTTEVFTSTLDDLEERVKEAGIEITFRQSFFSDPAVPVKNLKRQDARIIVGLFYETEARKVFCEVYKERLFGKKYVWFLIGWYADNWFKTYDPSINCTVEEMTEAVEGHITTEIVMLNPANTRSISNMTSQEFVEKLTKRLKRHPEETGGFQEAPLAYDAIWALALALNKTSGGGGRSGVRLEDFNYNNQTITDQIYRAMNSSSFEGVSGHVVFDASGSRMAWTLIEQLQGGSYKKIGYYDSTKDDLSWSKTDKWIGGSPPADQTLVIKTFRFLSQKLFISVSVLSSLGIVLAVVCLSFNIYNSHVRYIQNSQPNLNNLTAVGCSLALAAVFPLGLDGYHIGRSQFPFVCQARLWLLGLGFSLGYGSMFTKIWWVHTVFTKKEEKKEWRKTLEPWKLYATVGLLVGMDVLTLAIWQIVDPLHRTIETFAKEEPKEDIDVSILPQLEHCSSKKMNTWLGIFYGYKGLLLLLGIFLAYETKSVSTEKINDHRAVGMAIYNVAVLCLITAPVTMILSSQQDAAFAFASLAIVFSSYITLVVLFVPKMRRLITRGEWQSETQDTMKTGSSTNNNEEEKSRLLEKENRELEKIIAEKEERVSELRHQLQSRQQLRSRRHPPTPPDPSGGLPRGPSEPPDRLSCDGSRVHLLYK
T3 sequence (O88871 41-940 partner): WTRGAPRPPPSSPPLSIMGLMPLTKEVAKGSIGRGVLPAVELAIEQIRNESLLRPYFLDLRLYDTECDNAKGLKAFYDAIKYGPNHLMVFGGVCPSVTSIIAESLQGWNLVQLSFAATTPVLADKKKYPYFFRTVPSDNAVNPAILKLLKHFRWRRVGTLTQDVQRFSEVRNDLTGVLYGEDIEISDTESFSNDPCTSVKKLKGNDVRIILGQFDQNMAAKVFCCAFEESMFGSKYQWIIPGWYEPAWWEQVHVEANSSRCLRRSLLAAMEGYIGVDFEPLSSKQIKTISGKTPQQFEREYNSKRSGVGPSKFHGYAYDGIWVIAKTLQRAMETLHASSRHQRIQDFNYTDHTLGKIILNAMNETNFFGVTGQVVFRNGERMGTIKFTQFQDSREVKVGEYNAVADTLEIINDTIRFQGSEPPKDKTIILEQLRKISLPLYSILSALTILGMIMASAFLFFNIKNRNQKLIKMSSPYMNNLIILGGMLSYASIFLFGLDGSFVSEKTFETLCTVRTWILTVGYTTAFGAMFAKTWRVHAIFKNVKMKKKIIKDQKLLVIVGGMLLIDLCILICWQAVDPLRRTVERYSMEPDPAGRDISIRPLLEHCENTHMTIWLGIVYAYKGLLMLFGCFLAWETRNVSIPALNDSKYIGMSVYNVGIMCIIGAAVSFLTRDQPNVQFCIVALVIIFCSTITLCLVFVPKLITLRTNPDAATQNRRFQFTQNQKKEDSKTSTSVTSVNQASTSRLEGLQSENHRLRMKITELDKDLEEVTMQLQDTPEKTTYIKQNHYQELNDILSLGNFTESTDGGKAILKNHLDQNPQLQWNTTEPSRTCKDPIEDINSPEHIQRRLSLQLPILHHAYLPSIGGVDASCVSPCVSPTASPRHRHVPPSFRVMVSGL
Procedure: Following incubation by rapid filtration through GF/C unifilters (PerkinElmer, Boston, MA, USA), using a 96-well Packard cell-harvester (PerkinElmer) and three fast washes with ice-cold binding buffer, microscint scintillation fluid (PerkinElmer) was added to the dried filters, and the amount of filter-bound radioactivity was quantified in a Packard TopCount microplate scintillation counter (PerkinElmer). […] The binding reactions were terminated by rapid filtration through GF/C filters (Whatman), soaked in 0.1% polyethylene imine, using a Brandell 48-well harvester and rapid washing with ice-cold binding buffer. […] Data are presented as % specific binding (of control), and IC50 or Ki values calculated by means of non-linear regression curve-fitting and the Cheng-Prusoff equation, respectively.

[5] = tested on: photothrombotic focal ischemia in C57BL/6J mice; assay: Photothrombotic model, behavioural assessment (grid-walking and cylinder tasks); format: in vivo; settings: day 7
Procedure: (§1) All procedures were performed in accordance with the guidelines on the care and use of laboratory animals set out by the University of Otago, Animal Research Committee and the Guide for Care and Use of Laboratory Animals (NIH Publication No. 85-23, 1996). All in vivo studies were approved by the University of Otago Animal Ethics Committee and are reported according to the ARRIVE (Animal Research: Reporting In Vivo Experiments) guidelines. The photochemical cortical lesion model resembles situations of acute brain injury related clinically to stroke and traumatic brain injury (TBI). Focal ischemia was induced by photothrombosis in male C57BL/6J mice (8-10 weeks) weighing ˜23-30 g as previously described (Clarkson et al., 2010). Under anesthesia with isoflurane (2% to 2.5% in O2) mice were placed in a stereotactic apparatus, the skull exposed through a midline incision, cleared of connective tissue and dried. A cold light source (KL1500 LCD, Zeiss, Auckland, New Zealand) attached to a 40× objective providing a 2-mm diameter illumination was positioned 1.5 mm lateral from bregma. Then, 0.2 ml of Rose Bengal (Sigma-Aldrich, Auckland, New Zealand; 10 mg/ml in normal saline) was administered i.p. After 5 min, the brain was illuminated through the exposed intact skull for 15 min, while keeping body temperature at 37.0±0.3° C. degrees using a heating pad (Harvard apparatus, Holliston, MA, USA). The skin was glued and animals left in a cage placed on a heating pad during the wake-up phase. Mice were housed under a 12-hr light/dark cycle with ad libitum access to food and water. Further, the mice were monitored and weighed on a daily basis.
(§2) For in vivo studies, all compounds were dissolved in a mixture of sterile saline and H2O to obtain isotonicity (0.9%) and administered as 10 mg/ml and 10 μl of solution per gram mouse body weight. The injection of compound (i.p.) was performed 30 min, 3, 6 or 12 hrs after induction of the photothrombotic stroke. The vehicle groups received a corresponding volume of saline (0.9%) at the same time points (30 min, 3, 6 or 12 hrs).
Forelimb motor performance was determined using the cylinder and grid-walking tasks as previously described (Clarkson et al., 2010). All animals were tested both in a pre- and post-testing session, 1 week before and 3 days or 7 days after the ischemic insult, respectively. Observers who scored the behaviour were blinded to the treatment groups.

[6] = tested on: photothrombotic focal ischemia in C57BL/6J mice; assay: Photothrombotic mouse model of focal ischemia, infarct volume; format: in vivo; settings: day 7; for infarct size: saline 5.55
Procedure: as §1, §2
For quantification of the infarcted area, animals were perfused with saline and then with 4% paraformaldehyde (PFA) and the brain dissected out and submerged in 4% PFA for post-fixing overnight. Then the brains were moved to 30% sucrose solution and kept at 4° C. until processing. Brains were cut in 30 μm sections, free-floating in anti-freeze media. Sections were mounted, stained for cresyl violet and the infarct volumes determined by measuring every 6th section through the entire infarct as described in Lie et al (2017). All analyses were performed by an observer blinded to the treatment groups. Brains from the pMCAO studies were flash-frozen in CO2 (gas) and processed into six parallel series of sections (30 μm). Separate series were collected on glass slides and used for infarct size analysis or in Eppendorf tubes and used for qPCR. The glass slides were stored at −80° C. until further processing, and then Cresyl-Violet stained and quantified as described for the photothrombotic photochemical method.

[7] = tested on: wild-type and GABAB receptor knock-out mice; assay: Temperature recording (hypothermia) in mice; format: in vivo; settings: 750 mg/kg i.p., 2 hrs
Procedure: Mice were pre-treated with saline injections (0.9% saline) i.p. for 4 days prior to the experiment to minimize stress on the day of the experiment. Experiments were conducted in a quiet room, in which mice were left undisturbed for at least two hrs prior to the experiment. After the i.p. injections, mice were left in their home cages for two hrs, had core body temperature recorded, and were then euthanized. The core body temperature was measured rectally by a thermometer (model DM 852; ELLAB Instruments; Copenhagen, Denmark) via a lubricated thermistor probe (model PRA-22002-A, 2.2 mm diameter; ELLAB Instruments). Mice were held at the base of the tail and measured until a stable temperature measurement was obtained.
By contrast, compound A had no effect on hypothermia in either wild-type or knock-out mice.

[8] = tested on: GABAB(1) receptor knock-out mice; assay: Glucose metabolism study, 14C-2-deoxyglucose autoradiography; format: in vivo; settings: 200 mg/kg i.p., after 45 min
[9] = FIG. 1D, read-out: Ki, competition in the 3H-A binding assay
[10] = 50 mg/kg i.p. 3 hrs after injury
[11] = read-out: Ki, inhibition of 3H-B binding

T1 sequence (P11275 whole entry): as the sequence (P11275 whole entry) above

Structure (SMILES): O=C(O)Cc1ccccc1Nc1c(Cl)cc(O)cc1Cl [4′-hydroxydiclofenac, reference compound]
- Ki [1, 9]: 16000 nM

Structure (SMILES): O=C(O)/C=C1\CCCc2ccccc2C1O (stereo not drawn) [B, (E,RS)-6,7,8,9-tetrahydro-5-hydroxy-5H-benzocyclohept-6-ylidene acetic acid, reference compound]
- Ki [2]: 3710 nM
- Ki [3]: 440 nM

Structure (SMILES): O=C(O)Cc1cc(O)ccc1Nc1c(Cl)cccc1Cl [C, 2-((2,6-dichlorophenyl)amino)-5-hydroxyphenylacetic acid]
- inhibition of 3H-GABA binding to GABAB receptor ([4]; at a concentration of 1 mM): limited inhibition

Structure (SMILES): O=C(O)/C=C1\CCCc2cc(-c3ccccc3)ccc2C1O (stereo not drawn) [Compound 2, (E)-2-(5-hydroxy-2-phenyl-5,7,8,9-tetrahydro-6H-benzo[7]annulen-6-ylidene)acetic acid]
- motor performance in both asymmetry tests ([5]; 50 mg/kg 3 hrs after injury): significantly improved
- number of foot faults (grid-walking) ([5]; 175 mg/kg, 6 hr group): significantly reduced
- time spent on affected paw (cylinder task) ([5]; 175 mg/kg, both 3 and 6 hrs): significantly reduced
- decrease of infarct size vs saline [6, 10]: 39%
- infarct size [6, 10]: 3.4 mm^3
- decrease of infarct size vs saline ([6]; 175 mg/kg i.p. 3 or 6 hrs after injury): 38-46%
- infarct size ([6]; 175 mg/kg i.p. 3 hrs after injury): 3.44 mm^3
- infarct size ([6]; 175 mg/kg i.p. 6 hrs after injury): 2.98 mm^3

Structure (SMILES): O=C(O)/C=C1\CCCc2cc(/C=C/c3ccccc3)ccc2C1O (stereo not drawn) [Compound 3, (E)-2-(5-hydroxy-2-((E)-styryl)-5,7,8,9-tetrahydro-6H-benzo[7]annulen-6-ylidene)acetic acid]
- Ki [3]: 30 nM
- Ki ([1]; pH 7.4, read-out: Ki, 3H-A binding assay): 87 nM
- Ki ([1]; read-out: Ki, inhibition of 3H-A binding, pH 6): 50 nM

Structure (SMILES): O=C(O)/C=C1\CCCc2cc(Cl)ccc2C1O (stereo not drawn) [Compound 4, (E)-2-(2-chloro-5-hydroxy-5,7,8,9-tetrahydro-6H-benzo[7]annulen-6-ylidene)acetic acid]
- Ki [3, 11]: 52 nM

Structure (SMILES): O=C(O)/C=C1\CCCc2cc(I)ccc2C1O (stereo not drawn) [Compound 5, (E)-2-(2-iodo-5-hydroxy-5,7,8,9-tetrahydro-6H-benzo[7]annulen-6-ylidene)acetic acid]
- Ki [3, 11]: 53 nM

Structure (SMILES): O=C(O)/C=C1\CCCc2cc(F)ccc2C1O (stereo not drawn) [Compound 6, (E)-2-(2-fluoro-5-hydroxy-5,7,8,9-tetrahydro-6H-benzo[7]annulen-6-ylidene)acetic acid]
- Ki [3]: 108 nM

Structure (SMILES): Cc1ccc2c(c1)CCC/C(=C\C(=O)O)C2O (stereo not drawn) [Compound 7, (E)-2-(2-methyl-5-hydroxy-5,7,8,9-tetrahydro-6H-benzo[7]annulen-6-ylidene)acetic acid]
- Ki [3]: 325 nM

Structure (SMILES): O=C(O)/C=C1\CCCc2c(Br)cccc2C1O (stereo not drawn) [Compound 8, (E)-2-(1-bromo-5-hydroxy-5,7,8,9-tetrahydro-6H-benzo[7]annulen-6-ylidene)acetic acid]
- Ki [3]: 225 nM

Structure (SMILES): O=C(O)/C=C1\CCCc2c(-c3ccccc3)cccc2C1O (stereo not drawn) [Compound 9, (E)-2-(1-phenyl-5-hydroxy-5,7,8,9-tetrahydro-6H-benzo[7]annulen-6-ylidene)acetic acid]
- Ki [3, 11]: 382 nM

Structure (SMILES): O=C(O)/C=C1\CCCc2ccc(Br)cc2C1O (stereo not drawn) [Compound 10, (E)-2-(3-bromo-5-hydroxy-5,7,8,9-tetrahydro-6H-benzo[7]annulen-6-ylidene)acetic acid]
- Ki [3, 11]: 9690 nM

Structure (SMILES): O=C1CCCO1 [GBL, γ-butyrolactone]
- effect on body temperature (hypothermia) [7]: strong decreased in body temperature
- cerebral metabolic rate of glucose, hippocampus ([8]; saline 9.74): 6.45 nCi/ROI/min
- cerebral metabolic rate of glucose, frontal cortex ([8]; saline 10.46): 6.78 nCi/ROI/min

Structure (SMILES): O=C(O)CCCO [GHB, γ-hydroxybutyric acid]
- inhibition of 3H-GABA binding to GABAB receptor ([4]; at both 0.1 mM and 1 mM): could inhibit

Structure (SMILES): O=C(O)Cc1ccccc1Nc1c(Cl)cccc1Cl [diclofenac, reference compound]
- Ki [1, 9]: 4700 nM
